From patent US12643918B2, “Thiadiazolone derivatives and their use as AMPK agonists for the treatment of diabetes and related disorders” (Betagenon AB, priority 2020, dated 2026)
Values after ≈ are worked out from the molar mass of the structure shown. “Also recorded” adds a separate entry of the source. Read-outs that look alike come from different tables or passages of the source.

Tests used:
AMPK = assay: Activation of AMPK: Western blot of p-T172 AMPK in INS-1E insulinoma cells; assay type: cell-based; details: for ratio between p-T172 AMPK and non-phosphorylated AMPK: INS-1E cells, control = 1.00; for Phosphorylation of AMPK (T172) / AMPK activation (in words): cultured INS-1E cells, Western blot
Method: INS-1E cells were cultivated as described in Steneberg et al., JCI Insight. 2018; 3(12):e99114. https://doi.org/10.1172/jci.insight.99114, using 5% instead of 10% fetal bovine serum when plated for treatment.
Compound 3 was dissolved at 10 mM in DMSO and frozen at −20° C.
Compound 5 was dissolved at 10 mM in a 50:50 water/DMSO mixture, incubated for 15 minutes at room temperature in ultrasonic bath (VWR ultrasonic cleaner), and stored at room temperature.
The INS-1E cells were treated in serum free medium with increasing doses of Compounds 3 and 5 for 4 and 16 hours, respectively, in accordance with the methods described in Steneberg et al., JCI Insight. 2018; 3(12):e99114. https://doi.org/10.1172/jci.insight.99114.
Western blot analysis of the INS-1E cells was performed as described in Steneberg et. al., JCI Insight. 2018; 3(12):e99114. https://doi.org/10.1172/jci.insight.99114. The cell lysates were passed through a 30-gauge needle, ˜8-times and centrifuged for 10 min at +4° C. at 14000 rpm. Quantified values for AMPKα, and phosphorylated-T172 AMPKα, were normalized toward the quantified values for β-Actin.

[1] = Solubility of compounds at different pH; assay type: physicochemical; details: for solubility at 2 h / solubility at 20 h: 30 °C, thermodynamic from solid, read-out: Absolute Solubility; for solubility at 2 h: 2 hours incubation; for solubility at 20 h: 20 hours incubation
Method: Approximately 5 mg of each test compound (Compounds 1 and 5) was weighed in duplicate, and each weighed sample was transferred to a separate centrifuge tube containing 5 mL of the respective buffer. All the tubes were tightly stoppered and agitated at a constant rate at 30±1° C. using an orbital shaker.
[…] 50 μL of the buffer solution from each removed tube was transferred into a 10 mL tube and made up to the mark with diluent. Then 2.5 mL of the supernatant of each tube was transferred into a 50 mL tube and made up to […].
The nominal concentration of the solution in each 50 mL tube was 5 μg/mL.
Linearity solutions of 40 ng/mL to 10000 ng/mL were plotted.

[2] = Stability of compounds in USP/phosphate buffer pH 7.40; assay type: physicochemical; details: for % remaining compared to 0.0 min: Phosphate Buffer pH 7.40, 37° C., 5 μM; for Stability compared to Compound 1 (in words): mildly basic solutions (pH 7.4)
Method: 5 μM solutions of Compounds 1, 3 and 5 in USP buffer (pH: 7.40) were prepared with 5 mM DMSO stock solutions.

[3] = mice, Das et al. Reg Anesth Pain Med 2019, cited from earlier work
[4] = Single dose oral pharmacokinetic study of Compounds 1 and 3 in Sprague Dawley rats; assay type: in vivo
Method: 10.0 mL of 2% w/v methyl cellulose solution in phosphate buffer (pH 7.5) was added to a 100 mL conical flask along with 1 g of 2 mm glass beads. The solution was vigorously stirred on a magnetic stirrer. 100 mg of Compound 1 was slowly added to the solution, and the solution was vigorously stirred for approximately 1 h. The pH of the formulation was measured to be 7.49. Each formulation was freshly prepared prior to administration to the animals. The final concentration of Compound 1 in of the formulation was 10 mg/mL. The formulation was administered at 5 mL/kg body weight.
10.0 mL of 2% w/v methyl cellulose solution in phosphate buffer (pH 7.5) was added to a 100 mL of conical flask together with 1 g of 2 mm glass beads. The solution was vigorously stirred on a magnetic stirrer. 134 mg of Compound 3 was slowly added to the solution, and the solution was vigorously stirred for approximately 1 h. The pH of the formulation was measured to be 7.44. Each formulation was freshly prepared prior to administration to the animals. The final concentration of Compound 3 in the formulation was 13.4 mg/mL, which is equivalent to 10 mg/mL of Compound 1. The formulation was administered at 5 mL/kg body weight.
The doses of 50 mg/kg and 67 mg/kg b.w. for Compound 1 and Compound 3, respectively, were selected for comparison of equimolar doses.
Adult healthy male Sprague Dawley rats aged 9 to 11 weeks were used for experimentation after a minimum three days of acclimatisation. Fed state animals were administered the formulation of Compound 1 or Compound 3 orally via gavage at a dose of 50 mg/kg or 67 mg/kg body weight, respectively.
Under mild isoflurane anesthesia, blood specimens were collected by retro-orbital puncture method using capillary tubes into pre-labeled tubes containing anticoagulant (K2EDTA: 2 mg/mL blood) during the next 72 hours post-dosing, as detailed in Table 6. For blood sampling at multiple time points, the right and left eyes were used alternatively. Collected blood specimens were centrifuged at 6000 rpm, 4° C. for 10 minutes and the plasma samples were separated and stored at −80° C. until analysis.

[5] = pH 4.5, aqueous buffer, Acetate Buffer, pH 4.50
[6] = pH 7.4, aqueous buffer, Phosphate Buffer, pH 7.40
[7] = pH 9.2, aqueous buffer, Alkaline Borate Buffer, pH 9.20
[8] = plasma Compound 1 after oral Compound 1, 50 mg/kg b.w., fed male rats

Q: Which results are given for `O=C(/N=c1\sn(Cc2ccc(Cl)cc2)c(=O)n1COP(=O)([O-])[O-])c1ccc(Cl)cc1.[Na+].[Na+]` [Compound 5, disodium {(5Z)-5-[(4-chlorobenzoyl)imino]-2-[(4-chlorophenyl)methyl]-3-oxo-1,2,4-thiadiazolidin-4-yl}methyl phosphate]?
A: ratio between p-T172 AMPK and non-phosphorylated AMPK (AMPK; 2.5 μM, 16 h, 0.05% DMSO): 1.29; ratio between p-T172 AMPK and non-phosphorylated AMPK (AMPK; 5 μM, 16 h, 0.05% DMSO): 1.62; ratio between p-T172 AMPK and non-phosphorylated AMPK (AMPK; 10 μM, 16 h, 0.05% DMSO): 3.21; Phosphorylation of AMPK (T172) / AMPK activation (in words) (AMPK; phosphate): increase phosphorylation of AMPK in a dose-dependent manner; also recorded: increase phosphorylated-T172 AMPK in a dose-dependent manner; solubility at 2 h [1, 5]: 15 µg/mL; solubility at 20 h [1, 5]: 15 µg/mL; solubility at 2 h [1, 6]: 119 µg/mL; solubility at 20 h [1, 6]: 98 µg/mL; solubility at 2 h [1, 7]: 720 µg/mL; solubility at 20 h [1, 7]: 1240 µg/mL; solubility at 2 h ([1]; Ultrapure water): 419 µg/mL; solubility at 20 h ([1]; Ultrapure water): 36 µg/mL; Solubility relative to Compound 1 ([1]; basic solution): up to 30 times; Solubility compared to Compound 1 (in words) ([1]; basic solutions (pH>7) and mildly acidic conditions): higher solubility compared to Compound 1; % remaining compared to 0.0 min ([2]; 0.0 min): 100.00%; % remaining compared to 0.0 min ([2]; 15 min): 103.92%; % remaining compared to 0.0 min ([2]; 30 min): 107.58%; % remaining compared to 0.0 min ([2]; 60 min): 107.88%; % remaining compared to 0.0 min ([2]; 120 min): 97.30%; Stability compared to Compound 1 (in words) [2]: comparable stability to Compound 1

Q: For `CN(C)C(=N)N=C(N)N` [metformin], which “Effect on pain (in words)” value [3] is on record?
A: The value was “effective at treating pain”.

Q: With `O=C(O)CCC(=O)OCn1c(=NC(=O)c2ccc(Cl)cc2)sn(Cc2ccc(Cl)cc2)c1=O` (stereo in doubt) [Compound 3, 4-({(5Z)-5-[(4-chlorobenzoyl)imino]-2-[(4-chlorophenyl)methyl]-3-oxo-1,2,4-thiadiazolidin-4-yl}methoxy)-4-oxobutanoic acid] as the compound, how does the “ratio between p-T172 AMPK and non-phosphorylated AMPK” value (AMPK; 2.5 μM, 4 h, 0.1% DMSO) read?
A: The value was 1.62.

Q: And the “ratio between p-T172 AMPK and non-phosphorylated AMPK” value (AMPK; 5 μM, 4 h, 0.1% DMSO)?
A: Its value is 1.88.

Q: What about the “ratio between p-T172 AMPK and non-phosphorylated AMPK” value (AMPK; 10 μM, 4 h, 0.1% DMSO) of the same compound?
A: The value was 2.95.

Q: What about the “Phosphorylation of AMPK (T172) / AMPK activation (in words)” value (AMPK) of the same compound?
A: The value was “increase phosphorylation of AMPK in a dose-dependent manner; also recorded: increase phosphorylated-T172 AMPK in a dose-dependent manner”.

Q: And the “Increase in systemic exposure of Compound 1 after oral Compound 3 compared to administration of Compound 1” value ([4]; equimolar oral doses, rats)?
A: Its value is “two-fold”.

Q: And the “% remaining compared to 0.0 min” value ([2]; 0.0 min)?
A: The value was 100.00%.

Q: And the “% remaining compared to 0.0 min” value ([2]; 15 min)?
A: The value was 86.96%.

Q: What about the “% remaining compared to 0.0 min” value ([2]; 30 min) of the same compound?
A: Its value is 93.61%.

Q: And the “% remaining compared to 0.0 min” value ([2]; 60 min)?
A: The value was 88.74%.

Q: And the “% remaining compared to 0.0 min” value ([2]; 120 min)?
A: The value was 75.40%.

Q: And the “Stability compared to Compound 1 (in words)” value [2]?
A: Its value is “comparable stability to Compound 1”.

Q: With `O=C(Nc1nc(=O)n(Cc2ccc(Cl)cc2)s1)c1ccc(Cl)cc1` [Compound 1, 4-chloro-N-[2-[(4-chlorophenyl)methyl]-3-oxo-1,2,4-thiadiazol-5-yl]benzamide] as the compound, how does the “Effect on pain (in words)” value ([3]; listed as compound of formula II) read?
A: Its value is “effective at treating pain; also recorded: capable of treating pain”.

Q: What about the concentration at 1 h ([4]; male, Sprague Dawley, rat, plasma, 50 mg/kg b.w., after oral Compound 1, 50 mg/kg, 1.00 h) of the same compound?
A: The concentration at 1 h was 4240 ng/mL.

Q: And the concentration at 2 h ([4]; male, Sprague Dawley, rat, plasma, 50 mg/kg b.w., after oral Compound 1, 50 mg/kg, 2.00 h)?
A: The concentration at 2 h was 7990 ng/mL.

Q: And the concentration at 4 h ([4]; male, Sprague Dawley, rat, plasma, 50 mg/kg b.w., after oral Compound 1, 50 mg/kg, 4.00 h)?
A: Its concentration at 4 h is 14000 ng/mL.

Q: What about the concentration at 6 h ([4]; male, Sprague Dawley, rat, plasma, 50 mg/kg b.w., after oral Compound 1, 50 mg/kg, 6.00 h) of the same compound?
A: Its concentration at 6 h is 17000 ng/mL.

Q: What about the concentration at 8 h ([4]; male, Sprague Dawley, rat, plasma, 50 mg/kg b.w., after oral Compound 1, 50 mg/kg, 8.00 h) of the same compound?
A: The concentration at 8 h was 19300 ng/mL.

Q: And the concentration at 24 h ([4]; male, Sprague Dawley, rat, plasma, 50 mg/kg b.w., after oral Compound 1, 50 mg/kg, 24.00 h)?
A: Its concentration at 24 h is 9440 ng/mL.

Q: And the concentration at 0 h ([4]; male, Sprague Dawley, rat, plasma, after oral Compound 1, 50 mg/kg, 0.00 h)?
A: Its concentration at 0 h is 0 ng/mL.

Q: And the concentration at 0.25 h ([4]; male, Sprague Dawley, rat, plasma, after oral Compound 1, 50 mg/kg, 0.25 h)?
A: Its concentration at 0.25 h is 620 ng/mL.

Q: What about the concentration at 0.5 h ([4]; male, Sprague Dawley, rat, plasma, after oral Compound 1, 50 mg/kg, 0.50 h) of the same compound?
A: Its concentration at 0.5 h is 1980 ng/mL.

Q: And the concentration at 48 h ([4]; male, Sprague Dawley, rat, plasma, after oral Compound 1, 50 mg/kg, 48.00 h)?
A: The concentration at 48 h was 720 ng/mL.

Q: What about the concentration at 72 h ([4]; male, Sprague Dawley, rat, plasma, after oral Compound 1, 50 mg/kg, 72.00 h) of the same compound?
A: Its concentration at 72 h is 0 ng/mL.

Q: And the AUCextrap [4, 8]?
A: Its AUCextrap is 2.33 ± 1.74%.

Q: And the AUCinf [4, 8]?
A: The AUCinf was 458.31 ± 154.77 µg·h/mL.

Q: What about the AUClast [4, 8] of the same compound?
A: Its AUClast is 449.40 ± 157.75 µg·h/mL.

Q: What about the Cmax [4, 8] of the same compound?
A: The Cmax was 19.60 ± 5.54 µg/mL.

Q: And the MRTlast [4, 8]?
A: The MRTlast was 14.78 ± 0.68 h.

Q: And the T1/2 [4, 8]?
A: The T1/2 was 8.42 ± 1.47 h.

Q: And the Tmax [4, 8]?
A: The Tmax was 7.33 ± 1.16 h.

Q: What about the solubility at 2 h [1, 7] of the same compound?
A: Its solubility at 2 h is 29 µg/mL (≈ 76.3 µM).

Q: What about the solubility at 20 h [1, 7] of the same compound?
A: The solubility at 20 h was 44 µg/mL (≈ 116 µM).

Q: What about the “% remaining compared to 0.0 min” value ([2]; 0.0 min) of the same compound?
A: Its value is 100.00%.

Q: What about the “% remaining compared to 0.0 min” value ([2]; 15 min) of the same compound?
A: Its value is 97.62%.

Q: What about the “% remaining compared to 0.0 min” value ([2]; 30 min) of the same compound?
A: The value was 101.31%.

Q: What about the “% remaining compared to 0.0 min” value ([2]; 60 min) of the same compound?
A: Its value is 99.41%.

Q: And the “% remaining compared to 0.0 min” value ([2]; 120 min)?
A: The value was 106.18%.
